{"source": "patent US20090305225A1", "about": "“Inhibition of Creatine Uptake to Promote Weight Loss” (priority 2005, published 2009)", "key": {"[1]": {"assay": "Body weight and food intake after icv administration of beta-GPA in rats", "assay_type": "in vivo, rat", "method": "(§1) All animal handling was approved by and done in accordance with the guidelines and requirements of the University of Vermont Institutional Animal Care Use Committee. Adult male Sprague-Dawley rats (mycoplasma free; 200 g) were purchased from Charles River (Quebec, Canada) and housed in an air-conditioned (23+1 degree C.) room with lights on for 12 hours daily (starting at 6:00 a.m.) in the University of Vermont Animal Facility. Rats were housed singly in regular cages with free access to Purina Rat Chow (RMH 3000) and water for at least five days prior to surgery. Stereotactic surgery was used to implant chronic indwelling stainless steel cannulae into the third ventricle of the brain under fentanyl/droperidol anesthesia. Coordinates for cannula placement were obtained from the Konig Klippel stereotactic surgery atlas; with the nose bar 2.4 mm below the intraaural line and the vertical micrometer gantry tilted 9 degrees towards the animal, the coordinates were 4.9 mm dorsal to the intraaural line, 5 mm anterior to the intraaural line and 1.1 mm lateral to the midline. A minimum of 5 days later, animals were injected icv with beta-GPA (which was dissolved in saline at 50 degrees C. and the pH adjusted to 7.2-7.4 with dilute HCl) or other experimental compounds at the indicated concentrations. Control animals received equal volumes of vehicle. Volumes of icv injections never exceeded 10 ul per animal and were administered over 5-10 seconds. In some experiments, animals received two or more icv injections on the same or different days. Measures of body weight were made daily with a digital balance with a 6 second integration period to minimize the effects of animal movement. For experiments involving measurement of food intake, after stereotactic surgery animals were housed in individual Nalgene metabolic cages and given additional time for acclimation to the cage and feeding system. Food intakes were measured using powdered rat chow with daily weigh-backs as indicated."}, "[2]": {"assay_type": "physicochemical", "method": "as §1, with “Control animals received equal volumes of vehicle. Volumes of icv injections never exceeded 10 ul per animal and were administered over 5-10 seconds. In some experiments, animals received two or more icv injections on the same or different days. Measures of body weight were made daily with a digital balance with a 6 second integration period to minimize the effects of animal movement. For experiments involving measurement of food intake, after stereotactic surgery animals were housed in individual Nalgene metabolic cages and given additional time for acclimation to the cage and feeding system.” left out, “indicated. […]” for “indicated.”"}, "[3]": {"tested_on": "Fos (c-fos protein)", "assay": "Fos immunohistochemistry of hypothalamic sections 4 hours after icv injection", "assay_type": "in vivo, rat", "conditions": "4 hours after icv 2 mg per rat, especially around the III ventricles", "method": "In experiments involving immunohistochemistry, animals were injected icv with beta-GPA or with vehicle. Four hours after injection, animals were anesthetized with halothane and perfused through the left ventricle of the heart, initially with oxygenated Krebs buffer and then with ˜350 ml of 4% paraformaldehyde in 0.1M NaCl, pH 7.4 phosphate buffered saline (PBS). Brains were extracted from the skull, hypothalamic blocks dissected (by coronal cuts anterior and posterior to hypothalamic landmarks) and post-fixed in 4% paraformaldehyde solution at 4 degrees C. overnight. The following day, the blocks were transferred to 30% sucrose and incubated overnight at 4 degrees C. After freezing in Optimum Cutting Temperature (OCT) compound (Sakura, Japan), blocks were sectioned coronally at 40 um on a cryostat and sections individually floated in multi-well dishes filled with PBS. Sections were treated for 30 minutes with 0.4% Triton detergent in potassium PBS to aid in antibody penetration. Primary antibodies were added, the plates shaken gently for 1 hour at room temperature, then incubated at 4 degrees C. for 72 hours. Sections were then brought to room temperature while shaking and the primary antibody solution was removed by washing 3 times with PBS buffer. After removal of the last wash, the secondary antibody solution was added and the plates incubated for 2 hours at room temperature in the dark. Removal of the second antibody was achieved by washing three times with PBS buffer prior to mounting on subbed slides. They were allowed to dry, rewetted with PBS buffer and cover-slipped with Citifluor (Ted Pella, Reading, Calif.).\nFos studies were performed using indirect fluorescence visualization. The method utilized rabbit c-Fos-AB5 (1:2,000; Oncogene Research Products, Cambridge, Mass.) with goat anti-rabbit Cy3 (1:500; Jackson Immuno Research Laboratories, West Grove, Pa.) as the secondary antibody. […] Staining observed in experimental tissue was compared to that observed from experiment-matched negative controls. […] Immunoreactive Fos (Fos IR) was quantified by capturing images at 10× using MagnaFire 2.0 Software. These images were imported into the Metamorph 6.1 Software package and density of staining measured using Hue Saturation Intensity. Regions outlining nuclei were hand drawn with an electric pen and the total areas and stained areas measured to yield percentages of total areas with specific Fos-IR. The values for left and right dorsomedial nuclei in each rat were averaged, and the averages used to calculate means. In the case of the III ventricle, the entire image was used for quantification prior to calculating the percentage of the area with Fos-IR."}, "[4]": {"tested_on": "creatine transporter (CrT) mRNA", "assay": "Real-Time PCR of creatine transporter mRNA in hypothalami of beta-GPA-treated rats", "assay_type": "in vivo, rat", "conditions": "hypothalamus, normalized to L32 mRNA, not statistically significant, FIG. 4", "method": "RNA was purified with […] (Promega) at 37 degrees C. for 30 min. The first strand of cDNA was synthesized by adding 1 ug of purified RNA from each sample to 20 ul containing MMLV reverse transcriptase (Invitrogen Life Tech). Creatine transporter (CrT) gene expression was further quantatified by Real-Time PCR using sense primer: 5′GGTAAGGGTGCAA GCCTTTG′ (SEQ ID NO: 1); antisense primer: 5′[…]-3′ (SEQ ID NO:2) and TaqMan probe: 5′[…]-3′ (SEQ ID NO: 3) (MMG-Biotech). The rat ribosomal protein L32 gene was used as a loading control. 1 ul of each cDNA sample derived from the 20 ul reverse transcription reaction and 1 ug RNA template was mixed with 24 ul master mixture (Perkin Elmer) in a 96-well TaqMan plate. The PCR was run in an ABI prism 7700 thermocycler (Applied Biosystems) at 50 degrees C. for 2 min and 95 degrees C. for 10 min, followed by 95 degrees C. for 15 sec and 60 degrees C. for 1 min for 40 cycles. The data were analyzed using software supplied with the ABI prism 7700."}, "[5]": {"conditions": "icv 1 mg, 2 mg or 3 mg per animal, FIG. 2"}, "[6]": {"conditions": "icv 2 mg/rat, single dose, FIG. 1"}}}
{"smiles": "N=C(N)NCCC(=O)O", "note": "[beta-GPA, 3-guanidopropionic acid]", "values": [{"measurement": "body weight", "setting": "[1]; [5]", "value": "decreased in a dose-dependent fashion"}, {"measurement": "food intake", "setting": "[1]; [5]", "value": "decreased in a dose-dependent fashion"}, {"measurement": "time until body weight and food intake returned to values indistinguishable from vehicle-treated animals", "setting": "[1]; icv 2 mg/rat, single dose", "value": "four"}, {"measurement": "body weight", "setting": "[1]; [6]", "value": "modest decreases"}, {"measurement": "food intake", "setting": "[1]; [6]", "value": "modest decreases"}, {"measurement": "effect of icv dose (body weight and food intake)", "setting": "[1]; icv, 0.04 mg, five-fold lower dose, dose-ranging study", "value": "without effect"}, {"measurement": "magnitude of body weight and food intake effects after a second identical dosage", "setting": "[1]; second icv dose seven days after the first, FIG. 2", "value": "enhanced considerably"}, {"measurement": "usability of a five-fold greater icv dose (10 mg)", "setting": "[2]", "value": "not usable because of solubility dictates"}, {"measurement": "Fos IR", "setting": "[3]", "value": "increased"}, {"measurement": "relative units of CrT gene expression versus vehicle-treated animals", "setting": "[4]", "value": "slight decrease"}]}
